These results are taken from DBAASP.

Among the test systems are Candida albicans; Staphylococcus aureus MR; Aeromonas salmonicida; Vibrio anguillarum.
Test in all cases: ≥ marks a high value that may be exact or a test limit, other limits are often not marked, values filed in µg/mL are converted to µM
For test [1], the system named is Acinetobacter baumannii AB1.
The test system of test [2] is Acinetobacter baumannii AB2.
Test [3] has as its system Acinetobacter baumannii AB3.
The test system of test [4] is Klebsiella pneumoniae KP1.
For test [5], the system named is Klebsiella pneumoniae KP2.
For test [6], the system named is Klebsiella pneumoniae KP3.
Test [7] concerns Klebsiella pneumoniae KP4.
Test [8] deals with Pseudomonas aeruginosa PAO1.
Test [9] has as its system Pseudomonas aeruginosa TRPA 108.
The test system of test [10] is Pseudomonas aeruginosa TRPA 111.
In test [11] the test system is Staphylococcus aureus 4003.
The subject of test [12] is Staphylococcus aureus USA 100.
In test [13] the test system is Staphylococcus aureus USA 300.
Test [14] deals with Pseudomonas aeruginosa ATCC 27853.
Test [15] deals with Staphylococcus aureus ATCC 49476.
The subject of test [16] is Candida albicans FRR 5580.
Test [17] concerns Escherichia coli ATCC 25922.
In test [18] the test system is Pseudomonas aeruginosa ATCC 9027.
Test [19] relates to Staphylococcus aureus ATCC 25923.
Test [20] has as its system Acinetobacter baumannii ATCC BAA-747.
The test system of test [21] is Enterococcus faecium ATCC 700221.
Test [22] relates to Klebsiella pneumoniae ATCC 700603.
The subject of test [23] is Salmonella enterica ATCC 6539.
The subject of test [24] is Staphylococcus aureus ATCC 43300.
The subject of test [25] is Pseudomonas aeruginosa 15159.
In test [26] the test system is Staphylococcus aureus 2844.
The subject of test [27] is Staphylococcus aureus ATCC 29213.
The subject of test [28] is Staphylococcus aureus FDA 486.
Test [29] concerns Escherichia coli NCTC 10418.
The subject of test [30] is Staphylococcus aureus NCTC 12981.
The test system of test [31] is Acinetobacter baumannii ATCC 19606.
In test [32] the test system is Candida albicans ATCC 90028.
Test [33] has as its system Cryptococcus neoformans ATCC 208821.

In brackets after ≈: the same amount, converted by molar mass. Several values for one entry are separate records, joined by “and”; a condition that tells them apart may be missing. Equal entries are not always repeated.

In the case of `CC(C)[C@H](NC(=O)[C@H](Cc1c[nH]c2ccccc12)NC(=O)[C@H](CCCN=C(N)N)NC(=O)[C@H](CCCN=C(N)N)NC(=O)[C@@H](NC(=O)[C@@H](NC(=O)[C@H](CCCN=C(N)N)NC(=O)[C@@H](NC(=O)[C@@H](NC(=O)[C@H](CCCN=C(N)N)NC(=O)[C@H](CCCN=C(N)N)NC(=O)[C@@H](NC(=O)[C@H](Cc1c[nH]c2ccccc12)NC(=O)[C@H](CCCN=C(N)N)NC(=O)[C@H](CCCN=C(N)N)NC(=O)[C@@H](NC(=O)[C@H](CCCN=C(N)N)NC(=O)[C@H](CCCN=C(N)N)NC(=O)[C@@H](NC(=O)[C@H](Cc1c[nH]c2ccccc12)NC(=O)[C@H](CCCN=C(N)N)NC(=O)[C@@H](N)CCCN=C(N)N)C(C)C)C(C)C)C(C)C)C(C)C)C(C)C)C(C)C)C(C)C)C(=O)N[C@@H](CCCN=C(N)N)C(=O)N[C@@H](CCCN=C(N)N)C(=O)O` [RRWVRRVRRWVRRVVRVVRRWVRR], the MIC (commonly the smallest concentration in the dilution series that meets the test's criterion for growth inhibition) in test [1] stood at 1.47 µM (≈ 5 µg/mL); in test [2], 3.24 µM (≈ 11 µg/mL); in test [3] it was 1.76 µM (≈ 6 µg/mL); in [4] it was 2.94 µM (≈ 10 µg/mL); in [5] it was 9.41 µM (≈ 32 µg/mL); in test [6], 2.94 µM (≈ 10 µg/mL). In addition, the MIC in test [7] was 4.71 µM (≈ 16 µg/mL); in test [8], 1.76 µM and 3.5 µM; in test [9], 1.18 µM (≈ 4 µg/mL); in test [10], 0.882 µM (≈ 3 µg/mL); in test [11], 1.47 µM (≈ 5 µg/mL); in test [12], 1.76 µM (≈ 6 µg/mL). Besides, in [13], the minimal inhibitory concentration (MIC) is 1.76 µM and 3.2 µM.
Regarding `CC[C@H](C)[C@H](NC(=O)[C@H](C)NC(=O)[C@H](CCCCN)NC(=O)CNC(=O)[C@H](C)NC(=O)[C@H](CO)NC(=O)[C@H](Cc1ccccc1)NC(=O)[C@H](CC(C)C)NC(=O)CNC(=O)CNC(=O)[C@@H](NC(=O)[C@@H](NC(=O)[C@H](Cc1cnc[nH]1)NC(=O)[C@@H](N)Cc1cnc[nH]1)[C@@H](C)CC)[C@@H](C)CC)C(=O)N[C@@H](Cc1cnc[nH]1)C(=O)N[C@@H](CCCN=C(N)N)C(=O)N[C@@H](CC(C)C)C(=O)N[C@H](C(=O)N[C@@H](CCCN=C(N)N)C(=O)N[C@@H](CCCN=C(N)N)C(=O)N[C@@H](CCCN=C(N)N)C(=O)N[C@@H](CCCN=C(N)N)C(=O)N[C@@H](CCCN=C(N)N)C(=O)O)[C@@H](C)CC` [HHIIGGLFSAGKAIHRLIRRRRR], the minimal inhibitory concentration (MIC) was 47 µM (≈ 128 µg/mL) in the test on Candida albicans, 188 µM (≈ 512 µg/mL) in [14], at least 188 µM in [15] and at least 188 µM in the test on Staphylococcus aureus MR.
Regarding `NC(=O)[C@H](CCCN=C(N)N)NC(=O)[C@H](CCCN=C(N)N)NC(=O)[C@H](Cc1c[nH]c2ccccc12)NC(=O)[C@H](Cc1c[nH]c2ccccc12)NC(=O)[C@H](CCCN=C(N)N)NC(=O)[C@H](Cc1c[nH]c2ccccc12)NC(=O)[C@H](Cc1c[nH]c2ccccc12)NC(=O)[C@H](CCCN=C(N)N)NC(=O)[C@H](Cc1c[nH]c2ccccc12)NC(=O)[C@H](CCCN=C(N)N)NC(=O)[C@H](CCCN=C(N)N)NC(=O)[C@H](CCCN=C(N)N)NC(=O)[C@@H](N)CCCN=C(N)N` [RRRRWRWWRWWRR], the MIC in test [16] is at least 114 µM; in test [17], 29.1 µM (≈ 64 µg/mL); in [18], 29.1 µM (≈ 64 µg/mL); in [19] it was 29.1 µM (≈ 64 µg/mL).
On to `NC(=O)[C@H](CCCN=C(N)N)NC(=O)[C@H](CS)NC(=O)[C@H](Cc1ccc(O)cc1)NC(=O)[C@H](Cc1c[nH]c2ccccc12)NC(=O)[C@H](CCCN=C(N)N)NC(=O)[C@@H](N)Cc1c[nH]c2ccccc12` [WRWYCR], for which the MIC in test [20] was at least 132 µM; in [21] it was 8 µM (≈ 7.75 µg/mL); in test [17], 17 µM (≈ 16.5 µg/mL); in test [22] it was 66 µM (≈ 63.9 µg/mL); in [14], 33 µM (≈ 31.9 µg/mL); in test [23] it was 8 µM (≈ 7.75 µg/mL). In [24], this compound showed an MIC of 66 µM (≈ 63.9 µg/mL).
Consider `CC[C@H](C)[C@H](NC(=O)[C@H](CCCN=C(N)N)NC(=O)[C@H](CCC(N)=O)NC(=O)[C@@H](NC(=O)[C@@H](NC(=O)[C@H](CCCN=C(N)N)NC(=O)[C@H](CCCCN)NC(=O)[C@H](Cc1ccccc1)NC(=O)[C@H](CCC(=O)O)NC(C)=O)[C@@H](C)CC)C(C)C)C(=O)N[C@@H](CCCCN)C(=O)N[C@@H](CC(=O)O)C(=O)N[C@@H](Cc1ccccc1)C(=O)N[C@@H](CC(C)C)C(=O)N[C@@H](CCCN=C(N)N)C(=O)N[C@@H](CC(N)=O)C(=O)N[C@@H](CC(C)C)C(=O)N[C@H](C(N)=O)C(C)C` [EFKRIVQRIKDFLRNLV], for which the MIC amounted to 10 µM (≈ 22.2 µg/mL) in test [25]; 10 µM (≈ 22.2 µg/mL) in test [14]; 5 µM (≈ 11.1 µg/mL) in test [26]; 10 µM (≈ 22.2 µg/mL) in [27]; 5 µM (≈ 11.1 µg/mL) in test [28].
As for `CC(C)[C@H](NC(=O)[C@H](CCC(=O)O)NC(=O)[C@H](C)N)C(=O)N[C@@H](C)C(=O)N1CCC[C@H]1C(=O)N[C@@H](C)C(=O)N1CCC[C@H]1C(=O)N[C@@H](C)C(=O)N[C@@H](C)C(=O)N[C@@H](C)C(=O)N[C@@H](C)C(=O)N1CCC[C@H]1C(=O)N[C@@H](C)C(=O)N[C@@H](CCCCN)C(=O)N[C@@H](C)C(=O)N1CCC[C@H]1C(=O)N[C@@H](CCCCN)C(=O)N[C@@H](CCCCN)C(=O)N[C@@H](CCCCN)C(=O)N[C@@H](C)C(=O)N[C@@H](C)C(=O)N[C@@H](C)C(=O)N[C@@H](CCCCN)C(=O)N1CCC[C@H]1C(=O)N[C@@H](CCCCN)C(=O)N[C@@H](CCCCN)C(N)=O` [AEVAPAPAAAAPAKAPKKKAAAKPKK], the MIC against Aeromonas salmonicida and with Vibrio anguillarum was at least 413 µM each time.
With `NCCCC[C@H](NC(=O)[C@H](Cc1c[nH]c2ccccc12)NC(=O)[C@H](CCCCN)NC(=O)[C@@H](N)Cc1c[nH]c2ccccc12)C(=O)N[C@@H](Cc1c[nH]c2ccccc12)C(N)=O` [WKWKW], the MIC in test [29] and in [30] was at least 154 µM each time.
With `NC(=O)CC[C@H](NC(=O)[C@H](CCCN=C(N)N)NC(=O)[C@H](CCCN=C(N)N)NC(=O)[C@H](CS)NC(=O)[C@H](CCC(N)=O)NC(=O)[C@H](Cc1cnc[nH]1)NC(=O)[C@H](CO)NC(=O)[C@H](CCCN=C(N)N)NC(=O)[C@H](Cc1ccccc1)NC(=O)[C@H](Cc1cnc[nH]1)NC(=O)[C@H](CCCN=C(N)N)NC(=O)[C@H](Cc1cnc[nH]1)NC(=O)[C@H](Cc1cnc[nH]1)NC(=O)[C@@H](N)CO)C(=O)N[C@@H](CCCN=C(N)N)C(=O)N[C@@H](CO)C(=O)N[C@@H](CC(N)=O)C(=O)N[C@@H](CO)C(=O)N[C@@H](CS)C(=O)N[C@@H](CC(=O)O)C(=O)N[C@@H](CCCN=C(N)N)C(=O)O` [SHHRHFRSHQCRRQRSNSCDR], the MIC was above 11.9 µM in test [31]; 11.9 µM (≈ 32 µg/mL) in test [32]; 1.49 µM (≈ 4 µg/mL) in [33]; above 11.9 µM in test [17]; above 11.9 µM in test [22]; above 11.9 µM in test [14]. In [24], this compound came in with an MIC above 11.9 µM.
